Where a name gives a salt, the structure may show the parent alone. Read-outs that look alike come from different tables or passages of the source.
Columns and labels:
human PLK4 = human PLK4 (Homo sapiens (Human), UniProt O00444); assay: PLK4 inhibition assay (indirect ELISA); format: biochemical
Aurora B = Aurora B (Homo sapiens (Human), UniProt Q96GD4); assay: Aurora B inhibition assay (Z-Lyte); format: biochemical; settings: read-out: Aurora B IC50 Ranges
Aurora B, sequence (Q96GD4 whole entry): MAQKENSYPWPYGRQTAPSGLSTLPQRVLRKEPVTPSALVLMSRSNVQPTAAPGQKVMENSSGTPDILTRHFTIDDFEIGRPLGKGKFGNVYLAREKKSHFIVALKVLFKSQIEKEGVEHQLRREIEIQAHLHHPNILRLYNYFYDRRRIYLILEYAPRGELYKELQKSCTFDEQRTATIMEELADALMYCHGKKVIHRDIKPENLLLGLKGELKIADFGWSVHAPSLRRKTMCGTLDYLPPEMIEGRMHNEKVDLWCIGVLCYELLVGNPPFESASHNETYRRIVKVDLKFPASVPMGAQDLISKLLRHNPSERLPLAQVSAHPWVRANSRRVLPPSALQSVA

human PLK4, sequence (O00444 1-391): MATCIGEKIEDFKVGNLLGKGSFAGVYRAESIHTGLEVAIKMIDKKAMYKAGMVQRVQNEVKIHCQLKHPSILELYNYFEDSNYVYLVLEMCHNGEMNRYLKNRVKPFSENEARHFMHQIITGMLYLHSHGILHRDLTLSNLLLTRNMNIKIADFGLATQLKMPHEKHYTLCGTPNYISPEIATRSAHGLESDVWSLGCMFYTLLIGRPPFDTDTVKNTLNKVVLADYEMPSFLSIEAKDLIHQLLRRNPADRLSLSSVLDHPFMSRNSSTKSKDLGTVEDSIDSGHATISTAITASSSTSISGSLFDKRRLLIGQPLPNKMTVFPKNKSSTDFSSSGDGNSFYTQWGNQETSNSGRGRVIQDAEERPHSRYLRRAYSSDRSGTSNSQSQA

SMILES | IC50 (human PLK4; read-out: PLK4 IC50 Ranges) [µM] | IC50 (Aurora B) [µM] | IC50 (human PLK4) [µM]
CC(C)(c1ccc(/C=C/c2n[nH]c3cc([C@@H]4C[C@@]45C(=O)Nc4ccccc45)ccc23)cc1)N1CCOCC1 [Example A80, (1R,2S)-(E)-2-(3-(4-(2-morpholinopropan-2-yl)styryl)-1H-indazol-6-yl)spiro[cyclopropane-1,3′-indolin]-2′-one 2,2,2-trifluoroacetate salt] | < 0.1 | 0.1 to 1 | –
COc1ccc2c(c1)[C@]1(C[C@H]1c1ccc3c(/C=C/c4cc(F)c(CN(C)C)c(F)c4)n[nH]c3c1)C(=O)N2 [Example A216, (1R,2S)-(E)-2-(3-(4-((dimethylamino)methyl)-3,5-difluorostyryl)-1H-indazol-6-yl)-5′-methoxyspiro[cyclopropane-1,3′-indolin]-2′-one 2,2,2-trifluoroacetate] | < 0.1 | < 0.1 | –
COc1ccc2c(c1)[C@]1(C[C@H]1c1ccc3c(-c4ccc(N5CCNCC5)cc4)n[nH]c3c1)C(=O)N2 (relative stereo) [Example A48, (1R*,2S*)-5′-methoxy-2-(3-(4-(piperazin-1-yl)phenyl)-1H-indazol-6-yl)spiro[cyclopropane-1,3′-indolin]-2′-one 2,2,2-trifluoroacetate] | – | < 0.1 | < 0.1
COc1ccc2c(c1)[C@]1(C[C@H]1c1ccc3c(-c4ccc(CCN5CCOCC5)cc4)n[nH]c3c1)C(=O)N2 (relative stereo) [Example A159, (1R*,2S*)-5′-methoxy-2-(3-(4-(2-morpholinoethyl)phenyl)-1H-indazol-6-yl)spiro[cyclopropane-1,3′-indolin]-2′-one 2,2,2-trifluoroacetate] | < 0.1 | < 0.1 | –
COCCN1C(=O)[C@@]2(C[C@H]2c2ccc3c(/C=C/c4ccc(CN(C)C)cc4)n[nH]c3c2)c2ccccc21 (relative stereo) [Example A180, (1R*,2S*)-(E)-2-(3-(4-((dimethylamino)methyl)styryl)-1H-indazol-6-yl)-1′-(2-methoxyethyl)spiro[cyclopropane-1,3′-indolin]-2′-one 2,2,2-trifluoroacetate] | < 0.1 | < 0.1 | –
CN1C(=O)[C@@]2(C[C@H]2c2ccc3c(/C=C/c4ccc(CN5CCOCC5)cc4)n[nH]c3c2)c2ccccc21 (relative stereo) [Example A87, (1R*,2S*)-(E)-1′-methyl-2-(3-(4-(morpholinomethyl)styryl)-1H-indazol-6-yl)spiro[cyclopropane-1,3′-indolin]-2′-one 2,2,2-trifluoroacetate] | < 0.1 | < 0.1 | –
O=C1Nc2ccccc2[C@]12C[C@H]2c1ccc2[nH]ncc2c1 (relative stereo) [Example A1, (1R*,2S*)-2-(1H-indazol-5-yl)spiro[cyclopropane-1,3′-indolin]-2′-one] | > 1 | – | –
COc1ccc2c(c1)[C@@]1(C[C@@H]1c1ccc3c(I)n[nH]c3c1)C(=O)N2 [Example A8, (1S,2R)-2-(3-iodo-1H-indazol-6-yl)-5′-methoxyspiro[cyclopropane-1,3′-indolin]-2′-one] | > 1 | – | –
COc1ccc2c(c1)[C@]1(C[C@H]1c1ccc3c(-c4csc(CN5CCOCC5)c4)n[nH]c3c1)C(=O)N2 [Example A125, (1R,2S)-5′-methoxy-2-(3-(5-(morpholinomethyl)thiophen-3-yl)-1H-indazol-6-yl)spiro[cyclopropane-1,3′-indolin]-2′-one 2,2,2-trifluoroacetate] | < 0.1 | – | –
COc1ccc2c(c1)[C@]1(C[C@H]1c1ccc3c(/C=C/c4ccc(CCN5CCOCC5)cc4)n[nH]c3c1)C(=O)N2 [Example A177, (1R,2S)-(E)-5′-methoxy-2-(3-(4-(2-morpholinoethyl)styryl)-1H-indazol-6-yl)spiro[cyclopropane-1,3′-indolin]-2′-one 2,2,2-trifluoroacetate] | – | < 0.1 | –
O=C1Nc2ccccc2[C@]12C[C@H]2c1ccc2c(/C=C/c3csc(CN4CCOCC4)n3)n[nH]c2c1 [Example A77, (1R,2S)-2-(3-((E)-2-(2-(morpholinomethyl)thiazol-4-yl)vinyl)-1H-indazol-6-yl)spiro[cyclopropane-1,3′-indolin]-2′-one 2,2,2-trifluoroacetate salt] | < 0.1 | – | –
COc1ccc2c(c1)[C@]1(C[C@H]1c1ccc3c(-c4ccc(C5(F)CCN(C)CC5)cc4)n[nH]c3c1)C(=O)N2 [Example A124, (1R,2S)-2-(3-(4-(4-fluoro-1-methylpiperidin-4-yl)phenyl)-1H-indazol-6-yl)-5′-methoxyspiro[cyclopropane-1,3′-indolin]-2′-one 2,2,2-trifluoroacetate] | < 0.1 | – | –

Second part, led by results:

IC50 (human PLK4; read-out: PLK4 IC50 Ranges) [µM] | IC50 (Aurora B) [µM] | SMILES | IC50 (human PLK4) [µM]
< 0.1 | – | CN1C(=O)[C@@]2(C[C@H]2c2ccc3c(/C=C/c4ccc(CN5CCCC5)cc4)n[nH]c3c2)c2ccccc21 [Example A115, (1R,2S)-(E)-1′-methyl-2-(3-(4-(pyrrolidin-1-ylmethyl)styryl)-1H-indazol-6-yl)spiro[cyclopropane-1,3′-indolin]-2′-one 2,2,2-trifluoroacetate] | –
– | 0.1 to 1 | O=C1Nc2ccccc2[C@]12C[C@H]2c1ccc2c(I)n[nH]c2c1 (relative stereo) [Example A9, (1R*,2S*)-2-(3-iodo-1H-indazol-6-yl)spiro[cyclopropane-1,3′-indolin]-2′-one] | –
< 0.1 | – | C/C(=C\c1ccc(CN2CCOCC2)cc1)c1n[nH]c2cc([C@@H]3C[C@@]34C(=O)Nc3ccccc34)ccc12 [Example A114, (1R,2S)-2-(3-((E)-1-(4-(morpholinomethyl)phenyl)prop-1-en-2-yl)-1H-indazol-6-yl)spiro[cyclopropane-1,3′-indolin]-2′-one 2,2,2-trifluoroacetate] | –
< 0.1 | < 0.1 | CCN(CC)Cc1ccc(/C=C/c2n[nH]c3cc([C@@H]4C[C@@]45C(=O)Nc4ccc(OC)cc45)ccc23)cc1 [Example A206, (1R,2S)-(E)-2-(3-(4-((diethylamino)methyl)styryl)-1H-indazol-6-yl)-5′-methoxy spiro[cyclopropane-1,3′-indolin]-2′-one 2,2,2-trifluoroacetate] | –
< 0.1 | < 0.1 | O=C1Nc2ccccc2[C@]12C[C@H]2c1ccc2c(/C=C/c3csc(CN4CCOCC4)c3)n[nH]c2c1 [Example A202, (1R,2S)-2-(3-((E)-2-(5-(morpholinomethyl)thiophen-3-yl)vinyl)-1H-indazol-6-yl)spiro[cyclopropane-1,3′-indolin]-2′-one 2,2,2-trifluoroacetate] | –
< 0.1 | < 0.1 | COc1ccc2c(c1)[C@]1(C[C@H]1c1ccc3c(/C=C/c4ccc(CN5CCCC5)cc4)n[nH]c3c1)C(=O)N2 [Example A83, (1R,2S)-(E)-5′-methoxy-2-(3-(4-(pyrrolidin-1-ylmethyl)styryl)-1H-indazol-6-yl)spiro[cyclopropane-1,3′-indolin]-2′-one 2,2,2-trifluoroacetate] | –
< 0.1 | < 0.1 | COc1ccc2c(c1)[C@]1(C[C@H]1c1ccc3c(/C=C/c4ccc(CN5[C@H](C)CCC[C@@H]5C)cc4)n[nH]c3c1)C(=O)N2 [Example A203, (1R,2S)-(E)-2-(3-(4-((cis-2,6-dimethylpiperidin-1-yl)methyl)styryl)-1H-indazol-6-yl)-5′-methoxyspiro[cyclopropane-1,3′-indolin]-2′-one 2,2,2-trifluoroacetate] | –
< 0.1 | < 0.1 | COc1ccc2c(c1)[C@]1(C[C@H]1c1ccc3c(/C=C/c4ccc5c(c4)CNCC5)n[nH]c3c1)C(=O)N2 [Example A66, (1R,2S)-5′-methoxy-2-(3-((E)-2-(1,2,3,4-tetrahydroisoquinolin-7-yl)vinyl)-1H-indazol-6-yl)spiro[cyclopropane-1,3′-indolin]-2′-one 2,2,2-trifluoroacetate salt] | –
– | < 0.1 | COc1ccc2c(c1)[C@]1(C[C@H]1c1ccc3c(/C=C/c4ccc(CN5CCOCC5)cc4)n[nH]c3c1)C(=O)N2C [Example A102, (1R,2S)-(E)-5′-methoxy-1′-methyl-2-(3-(4-(morpholinomethyl)styryl)-1H-indazol-6-yl)spiro[cyclopropane-1,3′-indolin]-2′-one hydrochloride] | –
< 0.1 | – | COc1ccc2c(c1)[C@]1(C[C@H]1c1ccc3c(-c4cccc(CCO)c4)n[nH]c3c1)C(=O)N2 (relative stereo) [Example A46, (1R*,2S*)-2-(3-(3-(2-hydroxyethyl)phenyl)-1H-indazol-6-yl)-5′-methoxy spiro[cyclopropane-1,3′-indolin]-2′-one] | –
– | 0.1 to 1 | O=C1Nc2ccccc2[C@]12C[C@H]2c1ccc2c(I)n[nH]c2c1 [Example A10, (1R,2S)-2-(3-iodo-1H-indazol-6-yl)spiro[cyclopropane-1,3′-indolin]-2′-one] | –
> 1 | – | COc1cc2c(cc1OC)[C@]1(C[C@H]1c1ccc3c(-c4cccc(CN5CCOCC5)c4)n[nH]c3c1)C(=O)N2 (relative stereo) [Example A143, (1R*,2S*)-5′,6′-dimethoxy-2-(3-(3-(morpholinomethyl)phenyl)-1H-indazol-6-yl)spiro[cyclopropane-1,3′-indolin]-2′-one 2,2,2-trifluoroacetate] | –
0.1 to 1 | – | COc1cc2c(cc1OC)[C@]1(C[C@H]1c1ccc3c(-c4ccc(N5CCN(C)CC5)cc4)n[nH]c3c1)C(=O)N2 (relative stereo) [Example A144, (1R*,2S*)-5′,6′-dimethoxy-2-(3-(4-(4-methylpiperazin-1-yl)phenyl)-1H-indazol-6-yl)spiro[cyclopropane-1,3′-indolin]-2′-one 2,2,2-trifluoroacetate] | –
< 0.1 | – | O=C1Nc2ccccc2[C@]12C[C@H]2c1ccc2c(/C=C/c3ccc4c(c3)CNCCO4)n[nH]c2c1 [Example A113, (1R,2S)-2-(3-((E)-2-(2,3,4,5-tetrahydrobenzo[f][1,4]oxazepin-7-yl)vinyl)-1H-indazol-6-yl)spiro[cyclopropane-1,3′-indolin]-2′-one 2,2,2-trifluoroacetate] | –
0.1 to 1 | – | CN1C(=O)[C@@]2(C[C@H]2c2ccc3c(-c4ccc(N5CCNCC5)cc4)n[nH]c3c2)c2ccccc21 (relative stereo) [Example A88, (1R*,2S*)-1′-methyl-2-(3-(4-(piperazin-1-yl)phenyl)-1H-indazol-6-yl)spiro[cyclopropane-1,3′-indolin]-2′-one 2,2,2-trifluoroacetate] | –

— patent publication US9907800B2, “Kinase inhibitors and method of treating cancer” (University Health Network, priority 2010, dated 2018)
